Reference: ChEMBL document CHEMBL1150610, “Diterpenoids from Isodon adenantha” (J Nat Prod, 2002)
Values after ≈ are worked out from the molar mass of the structure shown.

What follows are compounds tested on K562 (assay: Cytotoxicity against human K562 cells).
Assay type: functional, cell-based

**Q.** How did the IC50 turn out when `C=C1C(=O)[C@]23C[C@H]1C[C@H](O)[C@H]2[C@@]1(C)[C@H](C[C@@H]3OC(C)=O)C(C)(C)[C@@H](OC(C)=O)C[C@@H]1O` [ADENANTHIN F] was run?
**A.** 3.6 µg/mL (≈ 8.28 µM)

**Q.** `C=C1C(=O)[C@]23C[C@H]1C[C@H](OC(C)=O)[C@H]2[C@]1(C)[C@@H](OC(C)=O)C[C@H](O)C(C)(C)[C@H]1C[C@@H]3OC(C)=O` [ADENANTHIN C] was tested. Which IC50 did it give?
**A.** 3.3 µg/mL (≈ 6.92 µM)

**Q.** `C=C1C(=O)[C@]23C[C@H]1C[C@H](OC(C)=O)[C@H]2[C@]1(C)[C@@H](OC(C)=O)C[C@H](O)C(C)(C)[C@H]1[C@@H](O)[C@@H]3OC(C)=O` [WEISIENSIN A] was tested. Which IC50 did it give?
**A.** 3.3 µg/mL (≈ 6.7 µM)
